Assay results as given in paper PMC7306898, “Concentration-Dependent Activity of Hydromethylthionine on Clinical Decline and Brain Atrophy in a Randomized Controlled Trial in Behavioral Variant Frontotemporal Dementia” (Journal of Alzheimer's Disease, 2020).

Columns and labels:
[1] = tested on: bvFTD patients; experiment: MMSE, 52-week Phase III trial; assay type: in vivo, human
From the text: (§1) The two doses were provided in identical blister packages as visually identical oral tablets to be taken for up to 52 weeks. The primary outcome was the Addenbrookes Cognitive Examination – Revised (ACE-R). The Functional Activities Questionnaire (FAQ) and reduction in progression of whole brain atrophy were alternative co-primary outcomes. Other outcomes included: Modified Alzheimer’s Disease Cooperative Study – Clinical Global Impression of Change (Modified-CGIC) determined by a third independent rater; Frontotemporal Dementia Rating Scale (FRS); MMSE (from MMSE items incorporated into ACE-R); Addenbrookes Cognitive Examination – III (a revised version of ACE-R which excludes MMSE items subject to copyright restrictions); change in brain volume measured by MRI in frontal and temporal lobes (FTV) and lateral ventricles (LVV); and the effect of hydromethylthionine in patients with known genetic mutations associated with bvFTD. Blood was collected prospectively for the purpose of population PK analyses.
(§2) The primary analyses were specified as a mixed model, repeated-measures analysis with an unstructured covariance matrix and no imputation for missing data. […]

[2] = tested on: bvFTD patients; experiment: Frontotemporal Dementia Rating Scale (FRS), 52-week Phase III trial; assay type: in vivo, human
From the text: as §1, §2

[3] = tested on: red blood cells; details: cited from earlier work
[4] = tested on: bvFTD patients; experiment: Safety: treatment emergent adverse events, Safety Population; details: for deaths: none judged related to treatment
From the text: Patients were monitored throughout the study for adverse events, including use of clinical laboratory tests (including measurement of methaemoglobin by pulse CO-oximetry), physical and neurological examinations, and 12-lead electrocardiograms (ECG) at all clinic visits (screening, baseline, and weeks 2, 16, 32, 52, and 56). The Unified Parkinson’s Disease Rating Scale Part III (UPDRS) [58] was included as a motor safety outcome measure requested by a regulatory agency, as was the Columbia-Suicide Severity Rating Scale (C-SSRS) [59], which were assessed at all visits. Patients were also systematically monitored for potential serotonin syndrome using a rating scale derived from four published diagnostic criteria [60], because of a theoretical potential for serotonin syndrome [61]. By protocol, amyloid related imaging abnormalities (ARIA), serotonin toxicity, and suicidality were to be reported as serious adverse events for expedited reporting.

[5] = 8 mg/day (n = 110), modeled change from baseline at 52 weeks
[6] = 200 mg/day (n = 104) vs 8 mg/day, 52 weeks
[7] = 8 mg/day (n = 110), Safety Population
[8] = 200 mg/day (n = 108), Safety Population

CN(C)c1ccc2c(c1)Sc1cc(N(C)C)ccc1N2 [hydromethylthionine, leuco-methylthioninium bis(hydromethanesulphonate)]
MMSE: Decline±SEM for LMTM 8 mg/day group [1, 5]: –3.41±0.53 | MMSE: Difference±SEM from LMTM 8 mg/day for 200 mg/day [1, 6]: –0.12±0.80 | FRS: Decline±SEM for LMTM 8 mg/day group [2, 5]: –0.1240±0.0136 | FRS: Difference±SEM from LMTM 8 mg/day for 200 mg/day [2, 6]: 0.0075±0.0206 | efficiency of uptake into red blood cells relative to MTC [3]: 20 fold | patients with TEAEs judged by the Investigator to be related to study drug ([4]; 8 mg/day): 30% | patients with a TEAE resulting in a dose reduction, interruption, or withdrawal of study drug ([4]; 8 mg/day): 15 [14%] | patients with at least one severe TEAE ([4]; 8 mg/day): 13 (12%) | subjects with myoclonus reported as an AE ([4]; 8 mg/day): 2 | withdrawal rate over 12 months ([4]; 8 mg/day): 15% | Number (%) of Patients Reporting at Least One Adverse Event (TEAE) [4, 7]: 88 (80%) | Number (%) of patients with TEAE: Agitation [4, 7]: 9 (8.2%) | Number (%) of patients with TEAE: Blood folate decreased [4, 7]: 6 (5.5%) | Number (%) of patients with TEAE: Cough [4, 7]: 7 (6.4%) | Number (%) of patients with TEAE: Diarrhea [4, 7]: 9 (8.2%) | Number (%) of patients with TEAE: Dysuria [4, 7]: 0 | Number (%) of patients with TEAE: Fall [4, 7]: 10 (9.1%) | Number (%) of patients with TEAE: Folate deficiency [4, 7]: 2 (1.8%) | Number (%) of patients with TEAE: Gastrointestinal disorders [4, 7]: 28 (25.5%) | Number (%) of patients with TEAE: Headache [4, 7]: 8 (7.3%) | Number (%) of patients with TEAE: Infections and infestations [4, 7]: 38 (34.5%) | Number (%) of patients with TEAE: Injury, poisoning and procedural complications [4, 7]: 18 (16.4%) | Number (%) of patients with TEAE: Insomnia [4, 7]: 3 (2.7%) | Number (%) of patients with TEAE: Investigations [4, 7]: 17 (15.5%) | Number (%) of patients with TEAE: Metabolism and nutrition disorders [4, 7]: 12 (10.9%) | Number (%) of patients with TEAE: Nasopharyngitis [4, 7]: 8 (7.3%) | Number (%) of patients with TEAE: Pollakiuria [4, 7]: 3 (2.7%) | Number (%) of patients with TEAE: Psychiatric disorders [4, 7]: 29 (26.4%) | Number (%) of patients with TEAE: Renal and urinary disorders [4, 7]: 25 (22.7%) | Number (%) of patients with TEAE: Respiratory, thoracic and mediastinal disorders [4, 7]: 12 (10.9%) | Number (%) of patients with TEAE: Urinary incontinence [4, 7]: 13 (11.8%) | Number (%) of patients with TEAE: Urinary tract infection [4, 7]: 13 (11.8%) | Number (%) of patients with TEAE: Vomiting [4, 7]: 5 (4.5%) | Number (%) of patients with TEAE: White blood cells urine positive [4, 7]: 1 (0.9%) | Number (%) of Patients Reporting at Least One Adverse Event (TEAE) ([4]; 8 mg/day (n = 110), Safety Population, listed as Hydromethylthionine): 88 (80.0%) | frequency of renal and urinary disorders ([4]; 8 mg/day, above-threshold plasma levels): 26% | frequency of renal and urinary disorders ([4]; 8 mg/day, below-threshold plasma levels): 18% | deaths ([4]; 8 mg/day): 1 | patients with TEAEs judged by the Investigator to be related to study drug ([4]; 200 mg/day): 56% | patients with a TEAE resulting in a dose reduction, interruption, or withdrawal of study drug ([4]; 200 mg/day): 35 [32%] | patients with at least one severe TEAE ([4]; 200 mg/day): 17 (16%) | subjects with myoclonus reported as an AE ([4]; 200 mg/day): 1 | withdrawal rate over 12 months ([4]; 200 mg/day): 38% | Number (%) of Patients Reporting at Least One Adverse Event (TEAE) [4, 8]: 103 (95.4%) | Number (%) of patients with TEAE: Agitation [4, 8]: 9 (8.3%) | Number (%) of patients with TEAE: Blood folate decreased [4, 8]: 9 (8.3%) | Number (%) of patients with TEAE: Cough [4, 8]: 2 (1.9%) | Number (%) of patients with TEAE: Diarrhea [4, 8]: 24 (22.2%) | Number (%) of patients with TEAE: Dysuria [4, 8]: 6 (5.6%) | Number (%) of patients with TEAE: Fall [4, 8]: 13 (12.0%) | Number (%) of patients with TEAE: Folate deficiency [4, 8]: 6 (5.6%) | Number (%) of patients with TEAE: Gastrointestinal disorders [4, 8]: 42 (38.9%) | Number (%) of patients with TEAE: Headache [4, 8]: 5 (4.6%) | Number (%) of patients with TEAE: Infections and infestations [4, 8]: 34 (31.5%) | Number (%) of patients with TEAE: Injury, poisoning and procedural complications [4, 8]: 16 (14.8%) | Number (%) of patients with TEAE: Insomnia [4, 8]: 7 (6.5%) | Number (%) of patients with TEAE: Investigations [4, 8]: 34 (31.5%) | Number (%) of patients with TEAE: Metabolism and nutrition disorders [4, 8]: 14 (13.0%) | Number (%) of patients with TEAE: Nasopharyngitis [4, 8]: 7 (6.5%) | Number (%) of patients with TEAE: Nervous system disorders [4, 8]: 27 (25.0%) | Number (%) of patients with TEAE: Pollakiuria [4, 8]: 10 (9.3%) | Number (%) of patients with TEAE: Psychiatric disorders [4, 8]: 31 (28.7%) | Number (%) of patients with TEAE: Renal and urinary disorders [4, 8]: 28 (25.9%) | Number (%) of patients with TEAE: Respiratory, thoracic and mediastinal disorders [4, 8]: 8 (7.4%) | Number (%) of patients with TEAE: Urinary incontinence [4, 8]: 9 (8.3%) | Number (%) of patients with TEAE: Urinary tract infection [4, 8]: 14 (13.0%) | Number (%) of patients with TEAE: Vomiting [4, 8]: 9 (8.3%) | Number (%) of patients with TEAE: White blood cells urine positive [4, 8]: 6 (5.6%) | deaths ([4]; 200 mg/day): 3 | serotonin syndrome reported as an AE ([4]; both doses, 20-item structured examination): No subject had serotonin syndrome reported as an AE
